Drawing on patent US11332395B2, “Sanitary food washing stage in food production” (CHEMTREAT, INC., priority 2019, dated 2022), this text covers H2O2 concentration for one compound.

Like-named read-outs stand apart in the source and are kept apart here.

For series [1] the following is noted: spray table water, initial pH 6.3, 60° F. As to the method:
Water samples were taken from the spray table of a sugar beet factory. […] The hydrogen peroxide concentration was measured periodically over a 60 minute period. The oxidation-reduction potential (ORP) was measured over the same period.

The conditions of series [2]: flume return (clarifier inlet) water, initial pH 6.4, 62° F. How it is done:
Water samples were taken from the flume return (clarifier inlet) in a sugar beet factory. […] The hydrogen peroxide concentration was measured periodically over a 60 minute period. The oxidation-reduction potential (ORP) was measured over the same period.

The mark [3] stands for this setting: initial dose 60 ppm, time 5 min.
The mark [4] stands for this setting: initial dose 60 ppm, time 30 min.
Where [5] appears, read: initial dose 60 ppm, time 45 min.
Where [6] appears, read: initial dose 60 ppm, time 60 min.
Where [7] appears, read: initial dose 120 ppm, time 5 min.
[8] abbreviates: initial dose 120 ppm, time 30 min.
Where [9] appears, read: initial dose 120 ppm, time 45 min.
[10] abbreviates: initial dose 120 ppm, time 60 min.
Where [11] appears, read: initial dose 180 ppm, time 5 min.
Where [12] appears, read: initial dose 180 ppm, time 30 min.
The mark [13] stands for this setting: initial dose 180 ppm, time 45 min.
Setting [14] is: initial dose 180 ppm, time 60 min.

As to `OO` [H2O2, hydrogen peroxide], the H2O2 concentration in series [1] (setting [3]) is listed as 50 ppm; in series [1] (setting [4]) it was 5 ppm; in series [1] (setting [5]) it was 0.5 ppm; in series [1] (setting [6]) it was less than 0.5 ppm; in series [1] (setting [7]), more than 100 ppm; in series [1] (setting [8]), 15 ppm. In addition, the H2O2 concentration in series [1] (setting [9]) is on record as 2 ppm; in series [1] (setting [10]), 1 ppm; in series [1] (setting [11]), more than 100 ppm; in series [1] (setting [12]), 25 ppm; in series [1] (setting [13]), 5 ppm; in series [1] (setting [14]), 3 ppm. For the same compound, the H2O2 concentration is 50 ppm in series [2] (setting [3]); 3 ppm in series [2] (setting [4]); 0.5 ppm in series [2] (setting [5]); 0 ppm in series [2] (setting [6]); more than 100 ppm in series [2] (setting [7]); 10 ppm in series [2] (setting [8]). Moreover, the H2O2 concentration in series [2] (setting [9]) is 3 ppm; in series [2] (setting [10]), less than 0.5 ppm; in series [2] (setting [11]) it was more than 100 ppm; in series [2] (setting [12]), 25 ppm; in series [2] (setting [13]) it was 5 ppm; in series [2] (setting [14]), 1 ppm.
